One data set deals with cerebellar granule cells. In words: Protection of cerebellar granule cells against Fe2+-induced oxidative damage. In kind it is cell-based, rats. To be noted: Rattus norvegicus, 100 µM ferrous chloride. As to the method: The cyclic nitrones were tested for their ability to protect primary cultures of cerebellar granule cells against oxidative injury induced by treatment with Fe^2+. Cerebellar granule cell cultures were prepared from 8 day old rats as previously described. Levi, G., Aloisi, F., Ciotti, M.T., Thangnipon, W., Kingsbury, A., and Balazs, R. (1989) In: A Dissection and Tissue Culture Manual of the Nervous System (Shahar, A., de Vellis, J., Vernadakis, A., and Haber, B., eds.) Alan R. Liss, Inc. New York, NY, pp. 211-214. Briefly, 8-10 cerebella were removed and placed in a Crebs-Ringer bicarbonate medium supplemented with BSA and MgSO4. Cerebella were finely chopped and digested with a trypsin/Krebs-Ringer solution. Cells were then dispersed by trituration in Krebs-Ringer containing DNase, MgSO4 and trypsin inhibitor followed by plating at a density of 1x10^6 cells/well in poly-1-lysine coated plate in MEM/10% fetal bovine serum/KCl/glutamine/gentamicin. Media was replaced at 24 hours and cytosine arabinoside added. Experiments were conducted with cells 8-10 days in vitro.
For oxidation studies the media was removed and replaced with Na^+ free Locke's solution (154.6 mM N-methyl-D-glucamine, 5.6 mM KCl, 2.3 mM CaCl2, 1 mM MgCl2, 3.6 mM NaHCO3, and 5 mM HEPES, pH 7.3) with the omission of glucose. The nitrones were added in either Locke's solution or in 20% β-cyclodextrins and allowed to incorporate into the cells for 30 min. At this time 20 µl of a 5 mM stock solution of ferrous chloride was added for a final concentration of 100 µM. After 45 min the media was removed and added to 1.5 ml of TBA/TCA (2:1) with 25 µl of 2% BHT and TBARS determined as described above. The absorbance of the control cells (no iron) was subtracted from the iron treated cells and this value taken as the denominator to determine the concentration of nitrone required to inhibit oxidation by 50%.
Fresh MEM media was added to the cells along with 100 µl of MTT. After 4 hrs, 1 ml of cold isopropanol/0.04 N HCl was added, the cells scraped, mixed well and transferred to 13 x 100 mm glass test tubes. The absorbance resulting from mitochondrial reduction of the MTT (570 nm minus 630 nm) was measured as an assessment of viability. The % cell death was determined by comparison to the absorbance of cells to which no iron was added. The difference between the iron-treated and control cells was taken as 100% and the concentration of nitrone to prevent the loss of MTT reduction capability (expressed in Table II as viability) by 50% was used as the IC50.

A short description of data set [1]: Hydroxyl radical trapping (inhibition of the •OH-dependent bleaching of p-NDA). In kind it is biochemical. To be noted: IC50 for hydroxyl radical trapping in vitro. As for the experimental part:
Cyclic nitrones were evaluated for •OH trapping activity by a variety of tests. The primary assay was dependent upon the ability of the compounds to inhibit the •OH-dependent bleaching of p-NDA. Bors, W., Michel, C., and Saran, M. (1979) J. Biochem. 95, 621-627. The p-NDA was prepared at 1 mM in 50 mM NaCl, pH 7.0. The hydroxyl radical was generated using Fenton chemistry (Fe^2+/H2O2). FeCl2 is dissolved in N2 purged, double distilled H2O to a final concentration of 2.5 mM. H2O2 was prepared from a 30% stock solution (8.8 M) at 1.25 mM in the buffer. Test compounds were solubilized in buffer or ethanol at a concentration of 1 M or 5 M, depending upon solubility.
Assay mixtures in glass cuvettes contained solutions of 0.02 ml of H2O2, 0.02 ml of test compound, 0.10 ml of p-NDA and 50 mM NaCl, pH 7.0 to a final volume of 0.98 ml. The oxidation was initiated by the addition of 0.02 ml of Fe^2+ and the bleaching of p-NDA was monitored as the loss in absorbance at 440 nm for 100 sec. To generate concentration curves, serial dilutions of the test compounds were made such that a constant volume of 0.02 ml was added to the reaction mixture. Ethanol itself is an •OH trap, thus controls contained an equal volume of ethanol for any test compound requiring this vehicle. […]

Data set [2] can be described thus: Sedation after administration in rats. To be noted: high doses in rats.
Where [3] appears, read: 0.75 h, 45 min, TBARS in media, read-out: TBARS IC50.
Where [4] appears, read: IC50 for preventing loss of MTT reduction capability, read-out: Viability.

Where two headings read alike, the source gives them in different places.

With `CC1(C)Cc2ccc3ccccc3c2C=[N+]1[O-]` [Compound 10, 3,3-Dimethyl-3,4-dihydrobenzo[h]isoquinoline N-oxide], the results for the IC50 in the data set on cerebellar granule cells (setting [3]) and in the data set on cerebellar granule cells (setting [4]) were 104 µM and 103 µM, respectively.

Turning to `CC1(C)Cc2ccoc2C=[N+]1[O-]` [Compound 23, 5,5-Dimethyl-4,5-dihydrofuro[2,3-c]pyridine N-oxide], in data set [1], the “OH RADICAL TRAPPING” value is “no effect at 20 mM”.

As to `CC1(C)Cc2sccc2C=[N+]1[O-]` [Compound 18, 6,6-Dimethyl-6,7-dihydrothieno[3,2-c]pyridine N-oxide], the IC50 turned out to be 2600 µM in the data set with cerebellar granule cells (setting [3]) and 880 µM with cerebellar granule cells (setting [4]).

Consider `CC1(C)Cc2ccccc2C=[N+]1[O-]` [Compound A, 3,4-dihydro-3,3-dimethylisoquinoline N-oxide, reference compound], for which the IC50 with cerebellar granule cells (setting [3]) was found to be 307 µM; in the data set on cerebellar granule cells (setting [4]), 292 µM. Besides, the sedation entry in data set [2] is reported as “causes sedation”.

The values are drawn from patent EP1288203A1, “Cyclic nitrones and pharmaceutical compositions containing them” (Aventis Pharmaceuticals Inc., priority 1995, dated 1997).
